In ChEMBL document CHEMBL1201862, “PubChem BioAssay data set” (2004):
Active and inactive are the calls of the source. Cut-off read from the data, not from the text of the source: active = IC50 of 10 µM or less and inactive = more.

Legend:
[1] = biological target: Melanin-concentrating hormone receptor 1 (Homo sapiens, UniProt Q99705); assay: Late-stage fluorescence-based counterscreen for antagonists of the G-protein coupled receptor 7 (GPR7): cell-based dose response assay to identify antagonists of the melanin-concentrating hormone receptor 1 (MCHR1) Set 6.; format: functional
Chain of Melanin-concentrating hormone receptor 1 (Q99705 whole entry): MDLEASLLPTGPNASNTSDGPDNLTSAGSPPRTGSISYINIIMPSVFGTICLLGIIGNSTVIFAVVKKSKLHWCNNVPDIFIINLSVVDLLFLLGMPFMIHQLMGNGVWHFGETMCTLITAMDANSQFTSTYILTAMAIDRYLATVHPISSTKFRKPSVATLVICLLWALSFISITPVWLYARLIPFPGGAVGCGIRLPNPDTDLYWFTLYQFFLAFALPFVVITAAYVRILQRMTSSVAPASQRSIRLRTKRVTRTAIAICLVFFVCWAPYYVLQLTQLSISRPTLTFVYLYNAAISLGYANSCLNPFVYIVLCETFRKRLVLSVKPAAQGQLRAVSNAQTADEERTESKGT

[2] = biological target: T1, Neuropeptides B/W receptor type 1 (Homo sapiens, UniProt P48145); assay: human NPBW1 receptor blockade, IC50 – cell-based, fluorescence, dose response, set 6, late-stage follow-up (AID 588583); format: functional
T1 sequence (P48145 whole entry): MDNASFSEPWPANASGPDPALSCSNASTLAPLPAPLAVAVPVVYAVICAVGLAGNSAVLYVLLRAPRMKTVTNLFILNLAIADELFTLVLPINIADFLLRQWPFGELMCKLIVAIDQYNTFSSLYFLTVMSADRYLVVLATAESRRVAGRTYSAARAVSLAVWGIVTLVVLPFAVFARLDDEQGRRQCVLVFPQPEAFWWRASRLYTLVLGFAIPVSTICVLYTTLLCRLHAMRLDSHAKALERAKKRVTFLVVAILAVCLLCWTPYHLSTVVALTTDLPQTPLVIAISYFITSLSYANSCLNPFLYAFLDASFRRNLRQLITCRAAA

- IC50 [1]: > 20 µM (inactive)
- IC50 [2]: > 20 µM (inactive)
SMILES: NC(=O)C(c1ccccc1)c1c(Cl)cnn(Cc2cccc3ccccc23)c1=O (configuration not stated)
